Where a SMILES comes first, the peptide text is derived from it. The star is where a group is joined. Cbz = O=C(OCc1ccccc1)*; CH2F = FC*
Legend:
SNP cells [1] = assay: Photodynamic cytotoxicity in SNP cells (Cell Counting Kit-8); format: cell-based, canine; details: 24 h incubation, 650-nm laser 10 mW/cm^2, viability 24 h after PDT
Experimental: We seeded 1 × 10^4 SNP cells into each well of 96-well plates (Corning Inc., New York, NY, USA) followed by overnight incubation. Cells were then incubated with various concentrations of G-Ce6 for 24 h at 37 °C. After washing with fresh media, the cells were irradiated with 650-nm light emitted by a semiconductor laser (Osada Electric Co., Ltd., Tokyo, Japan), using an optical fiber with a micro-lens delivery attachment (Pioneer Optics, Inc., Windsor Lock, CT, USA). PDT was performed at 10 mW/cm^2 in cells exposed to six concentrations of NPe6 and G-Ce6 (0, 0.064, 0.32, 1.6, 8.0, or 40.0 μg/mL) using four light doses (0, 1, 5, or 15 J/cm^2). The cells were then incubated for 24 h in the dark prior to examining cell viability using the Cell Counting Kit-8 (Dojindo, Kumamoto, Japan), according to the manufacturer’s instructions.

SNP cells [2] = assay: Effect of a pan-caspase inhibitor on G-Ce6-PDT-induced cell death; format: cell-based, canine; details: 10 μM Z-VAD-FMK; 8 μg/mL G-Ce6; 5 J/cm^2
Experimental: SNP cells were incubated with 8 μg/mL G-Ce6 for 24 h in the presence (10 μM) or absence of Z-VAD-FMK (Medical & Biological Laboratories Co. Ltd., Aichi, Japan), which is a pan-caspase inhibitor. After washing with fresh media, the cells were irradiated with 650-nm laser light (10 mW/cm^2, 5 J/cm^2) emitted by a semiconductor laser, using an optical fiber with a microlens delivery attachment. Apoptosis was assessed at 4 h after laser irradiation using the Muse Annexin V and Dead Cell Assay kit.

[3] = design: method as in earlier work; details: cited from earlier work

C=Cc1c(C)c2cc3nc(c(CC(=O)N[C@@H](CC(=O)[O-])C(=O)[O-])c4[nH]c(cc5nc(cc1[nH]2)C(C)=C5CC)c(C)c4C(=O)[O-])[C@@H](CCC(=O)[O-])[C@@H]3C.[Na+].[Na+].[Na+].[Na+] [NPe6, mono-L-aspartyl chlorin e6, reference compound]
IC50 against SNP cells (SNP cells [1]; light dose 1 J/cm^2): 75.2 µg/mL
IC50 against SNP cells (SNP cells [1]; light dose 5 J/cm^2): 30.4 µg/mL
IC50 against SNP cells (SNP cells [1]; light dose 15 J/cm^2): 30.6 µg/mL

COC(=O)C[C@H](NC(=O)[C@H](C)NC(=O)[C@@H](NC(=O)OCc1ccccc1)C(C)C)C(=O)CF [Z-VAD-FMK, reference compound] (Cbz-Val-Ala-Asp(OMe)-CH2F)
Influence on number of Annexin V-positive cells and cytotoxicity induced by G-Ce6-mediated PDT (SNP cells [2]): did not influence

porfimer sodium
AUC [3]: 1670.2 ± 71.6 µg·h/mL
T1/2 [3]: 44.22 ± 8.10 h

— article PMC6562844, “A Basic Study of Photodynamic Therapy with Glucose-Conjugated Chlorin e6 Using Mammary Carcinoma Xenografts” (Cancers, 2019)
